This is an account of results in patent US10670605B2, “Cysteine reactive probes and uses thereof” (The Scripps Research Institute, priority 2015, dated 2020).

SMILES strings stand for the structures.

Common to all, as to assay: Competitive isoTOP-ABPP in situ (fragment-treated cells)
What all share (type): cell-based
Settings in all cases: 200 μM, insitu, 231

Test [1] has as its target T1, cysteines in MDA-MB-231 and Ramos cells (Homo sapiens, UniProt Q2NL82).
T1 sequence (Q2NL82 1-804): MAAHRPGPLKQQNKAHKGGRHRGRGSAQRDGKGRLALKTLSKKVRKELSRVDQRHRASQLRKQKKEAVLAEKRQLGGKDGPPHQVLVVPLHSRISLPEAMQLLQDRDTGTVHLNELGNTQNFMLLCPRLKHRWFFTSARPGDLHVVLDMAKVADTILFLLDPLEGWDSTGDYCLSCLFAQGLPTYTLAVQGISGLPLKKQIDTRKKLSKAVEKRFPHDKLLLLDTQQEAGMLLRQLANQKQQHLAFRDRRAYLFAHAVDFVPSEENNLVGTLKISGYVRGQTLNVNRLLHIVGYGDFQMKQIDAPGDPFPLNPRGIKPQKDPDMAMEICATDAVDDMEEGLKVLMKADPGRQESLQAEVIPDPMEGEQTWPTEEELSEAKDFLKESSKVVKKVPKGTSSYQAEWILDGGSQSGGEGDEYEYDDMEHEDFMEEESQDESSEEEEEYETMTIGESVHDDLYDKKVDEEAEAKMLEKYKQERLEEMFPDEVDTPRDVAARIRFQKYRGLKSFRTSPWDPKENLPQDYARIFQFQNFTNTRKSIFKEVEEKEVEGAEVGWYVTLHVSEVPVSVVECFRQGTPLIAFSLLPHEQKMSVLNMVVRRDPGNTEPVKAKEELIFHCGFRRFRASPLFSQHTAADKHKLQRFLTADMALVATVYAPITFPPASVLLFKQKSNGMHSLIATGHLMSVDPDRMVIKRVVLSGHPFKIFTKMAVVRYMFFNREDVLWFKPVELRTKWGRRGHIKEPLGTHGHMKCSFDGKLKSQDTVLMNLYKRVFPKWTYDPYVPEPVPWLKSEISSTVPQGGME

In test [2] the target is cysteines in MDA-MB-231 and Ramos cells (Homo sapiens, UniProt P48643).
Sequence of cysteines in MDA-MB-231 and Ramos cells (Homo sapiens, UniProt P48643) (P48643 whole entry): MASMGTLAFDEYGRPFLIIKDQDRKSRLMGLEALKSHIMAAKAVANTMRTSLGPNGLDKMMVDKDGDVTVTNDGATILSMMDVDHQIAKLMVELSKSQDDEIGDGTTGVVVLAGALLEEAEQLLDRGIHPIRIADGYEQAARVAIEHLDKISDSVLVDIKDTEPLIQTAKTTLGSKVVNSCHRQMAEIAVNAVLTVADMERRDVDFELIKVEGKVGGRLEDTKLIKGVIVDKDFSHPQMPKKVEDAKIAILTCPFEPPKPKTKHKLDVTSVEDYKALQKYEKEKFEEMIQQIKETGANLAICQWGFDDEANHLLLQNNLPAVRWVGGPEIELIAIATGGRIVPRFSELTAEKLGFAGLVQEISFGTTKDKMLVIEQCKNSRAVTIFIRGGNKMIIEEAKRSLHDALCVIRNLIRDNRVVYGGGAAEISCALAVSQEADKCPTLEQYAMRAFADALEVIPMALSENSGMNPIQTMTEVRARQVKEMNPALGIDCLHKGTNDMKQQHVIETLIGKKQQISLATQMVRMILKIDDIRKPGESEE
Test [3] has as its target cysteines in MDA-MB-231 and Ramos cells (Homo sapiens, UniProt Q9UJW0).
Test [4] deals with cysteines in MDA-MB-231 and Ramos cells (Homo sapiens, UniProt Q14980).
Sequence of cysteines in MDA-MB-231 and Ramos cells (Homo sapiens, UniProt Q14980) (Q14980 whole entry): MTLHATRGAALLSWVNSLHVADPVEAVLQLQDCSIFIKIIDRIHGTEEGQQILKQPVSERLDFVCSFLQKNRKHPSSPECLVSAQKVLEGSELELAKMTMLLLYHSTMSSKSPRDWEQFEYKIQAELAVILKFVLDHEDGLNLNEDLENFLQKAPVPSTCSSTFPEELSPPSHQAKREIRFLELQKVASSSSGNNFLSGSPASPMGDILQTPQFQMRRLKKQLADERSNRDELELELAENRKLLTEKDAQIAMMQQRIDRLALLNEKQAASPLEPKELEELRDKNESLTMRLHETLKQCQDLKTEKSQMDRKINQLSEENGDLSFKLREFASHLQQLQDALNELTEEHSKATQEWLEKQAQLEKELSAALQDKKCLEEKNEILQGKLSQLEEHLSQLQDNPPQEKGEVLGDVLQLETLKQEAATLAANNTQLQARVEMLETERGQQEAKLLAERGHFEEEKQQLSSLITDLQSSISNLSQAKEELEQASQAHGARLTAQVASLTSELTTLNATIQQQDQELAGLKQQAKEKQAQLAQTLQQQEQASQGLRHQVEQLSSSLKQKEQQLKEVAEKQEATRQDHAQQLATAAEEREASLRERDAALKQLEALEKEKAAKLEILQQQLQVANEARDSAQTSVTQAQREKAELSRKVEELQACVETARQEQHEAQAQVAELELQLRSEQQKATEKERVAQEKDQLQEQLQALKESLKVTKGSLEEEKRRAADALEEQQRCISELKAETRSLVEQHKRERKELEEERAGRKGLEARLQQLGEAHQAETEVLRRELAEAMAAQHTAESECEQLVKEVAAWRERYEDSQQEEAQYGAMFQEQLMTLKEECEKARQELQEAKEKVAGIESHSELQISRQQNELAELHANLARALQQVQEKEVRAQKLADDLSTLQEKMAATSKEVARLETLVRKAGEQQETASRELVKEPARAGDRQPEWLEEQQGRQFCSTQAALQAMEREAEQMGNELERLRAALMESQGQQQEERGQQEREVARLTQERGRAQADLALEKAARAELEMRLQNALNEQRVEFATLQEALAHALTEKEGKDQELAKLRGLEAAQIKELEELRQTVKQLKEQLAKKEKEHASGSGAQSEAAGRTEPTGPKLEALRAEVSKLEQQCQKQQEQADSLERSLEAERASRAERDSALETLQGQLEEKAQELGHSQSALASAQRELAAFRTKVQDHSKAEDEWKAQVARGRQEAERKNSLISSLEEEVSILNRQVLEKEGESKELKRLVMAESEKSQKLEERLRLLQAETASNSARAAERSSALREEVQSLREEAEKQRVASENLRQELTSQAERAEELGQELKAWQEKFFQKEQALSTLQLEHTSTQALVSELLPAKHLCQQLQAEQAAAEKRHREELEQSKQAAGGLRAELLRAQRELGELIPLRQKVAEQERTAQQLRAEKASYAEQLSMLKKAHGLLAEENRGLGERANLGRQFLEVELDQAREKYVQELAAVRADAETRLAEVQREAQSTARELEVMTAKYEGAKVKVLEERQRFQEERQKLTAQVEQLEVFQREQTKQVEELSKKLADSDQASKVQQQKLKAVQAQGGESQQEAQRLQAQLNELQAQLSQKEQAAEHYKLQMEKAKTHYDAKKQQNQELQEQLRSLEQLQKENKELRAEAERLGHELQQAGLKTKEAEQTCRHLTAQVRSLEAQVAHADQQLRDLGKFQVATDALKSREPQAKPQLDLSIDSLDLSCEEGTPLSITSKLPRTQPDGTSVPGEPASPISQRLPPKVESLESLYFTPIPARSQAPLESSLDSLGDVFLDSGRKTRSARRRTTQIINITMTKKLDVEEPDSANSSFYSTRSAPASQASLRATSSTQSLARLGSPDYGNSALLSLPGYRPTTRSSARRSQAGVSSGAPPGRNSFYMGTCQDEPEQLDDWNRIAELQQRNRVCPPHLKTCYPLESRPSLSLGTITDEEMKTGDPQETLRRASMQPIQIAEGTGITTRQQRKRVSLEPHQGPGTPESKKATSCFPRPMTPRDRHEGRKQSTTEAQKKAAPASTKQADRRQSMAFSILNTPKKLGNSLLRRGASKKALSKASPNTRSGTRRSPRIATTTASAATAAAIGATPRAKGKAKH
Test [5] concerns the target cysteines in MDA-MB-231 and Ramos cells (Homo sapiens, UniProt P27707).
Test [6] addresses T2, cysteines in MDA-MB-231 and Ramos cells (Homo sapiens, UniProt Q96RU2).
T2 sequence (Q96RU2 1-1077): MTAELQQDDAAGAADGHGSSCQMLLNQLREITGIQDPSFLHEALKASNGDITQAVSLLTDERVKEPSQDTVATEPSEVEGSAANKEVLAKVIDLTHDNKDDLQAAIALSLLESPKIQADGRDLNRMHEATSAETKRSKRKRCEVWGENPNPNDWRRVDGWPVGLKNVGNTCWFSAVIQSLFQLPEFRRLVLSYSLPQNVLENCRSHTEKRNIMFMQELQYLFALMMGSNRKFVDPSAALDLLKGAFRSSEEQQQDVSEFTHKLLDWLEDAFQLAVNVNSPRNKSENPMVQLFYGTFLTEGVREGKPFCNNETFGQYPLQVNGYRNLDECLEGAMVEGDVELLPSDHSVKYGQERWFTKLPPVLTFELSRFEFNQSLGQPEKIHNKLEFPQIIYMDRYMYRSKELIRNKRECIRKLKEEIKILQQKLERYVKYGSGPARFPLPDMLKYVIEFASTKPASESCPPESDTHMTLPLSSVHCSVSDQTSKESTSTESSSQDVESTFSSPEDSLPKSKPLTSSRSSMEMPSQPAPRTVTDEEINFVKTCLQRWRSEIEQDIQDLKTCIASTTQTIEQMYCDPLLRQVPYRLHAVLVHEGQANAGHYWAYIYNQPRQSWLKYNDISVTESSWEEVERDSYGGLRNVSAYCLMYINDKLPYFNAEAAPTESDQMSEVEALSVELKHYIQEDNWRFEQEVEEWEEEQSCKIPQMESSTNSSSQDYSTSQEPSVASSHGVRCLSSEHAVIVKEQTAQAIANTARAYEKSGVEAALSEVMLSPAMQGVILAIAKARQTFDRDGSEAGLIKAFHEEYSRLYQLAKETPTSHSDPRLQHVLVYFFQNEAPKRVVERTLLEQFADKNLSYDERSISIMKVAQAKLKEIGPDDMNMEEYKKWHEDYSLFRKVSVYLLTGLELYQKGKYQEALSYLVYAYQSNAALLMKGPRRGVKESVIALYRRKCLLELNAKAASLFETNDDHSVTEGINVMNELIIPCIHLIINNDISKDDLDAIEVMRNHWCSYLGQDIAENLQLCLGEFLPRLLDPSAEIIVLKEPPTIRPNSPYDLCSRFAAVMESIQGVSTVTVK

For test [7], the target named is T3, cysteines in MDA-MB-231 and Ramos cells (Homo sapiens, UniProt Q8NFH5).
T3 sequence (Q8NFH5 1-326): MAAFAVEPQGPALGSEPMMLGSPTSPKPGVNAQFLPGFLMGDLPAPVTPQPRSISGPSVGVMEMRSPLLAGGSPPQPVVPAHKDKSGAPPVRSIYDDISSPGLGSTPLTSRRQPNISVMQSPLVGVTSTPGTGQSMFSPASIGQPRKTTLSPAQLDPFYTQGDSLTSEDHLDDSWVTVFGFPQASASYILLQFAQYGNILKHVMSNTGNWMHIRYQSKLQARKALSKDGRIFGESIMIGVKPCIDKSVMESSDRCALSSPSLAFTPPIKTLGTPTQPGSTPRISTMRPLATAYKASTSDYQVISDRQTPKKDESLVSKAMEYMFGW

The target of test [8] is cysteines in MDA-MB-231 and Ramos cells (Homo sapiens, UniProt Q15118).
Sequence of cysteines in MDA-MB-231 and Ramos cells (Homo sapiens, UniProt Q15118) (Q15118 29-436): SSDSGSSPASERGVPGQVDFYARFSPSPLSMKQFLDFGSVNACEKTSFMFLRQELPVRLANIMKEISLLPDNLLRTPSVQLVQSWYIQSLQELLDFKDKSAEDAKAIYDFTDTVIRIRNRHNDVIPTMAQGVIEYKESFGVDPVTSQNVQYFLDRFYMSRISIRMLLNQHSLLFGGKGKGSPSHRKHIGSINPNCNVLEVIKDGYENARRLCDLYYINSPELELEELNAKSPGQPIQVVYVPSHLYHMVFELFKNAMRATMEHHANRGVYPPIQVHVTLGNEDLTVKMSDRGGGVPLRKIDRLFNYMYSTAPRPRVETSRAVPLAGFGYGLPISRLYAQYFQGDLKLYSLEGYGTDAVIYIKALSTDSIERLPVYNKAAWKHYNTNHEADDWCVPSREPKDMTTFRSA
For test [9], the target named is cysteines in MDA-MB-231 and Ramos cells (Homo sapiens, UniProt Q14137).
In test [10] the target is cysteines in MDA-MB-231 and Ramos cells (Homo sapiens, UniProt Q15149).
Test [11] deals with cysteines in MDA-MB-231 and Ramos cells (Homo sapiens, UniProt O14980).
Sequence of cysteines in MDA-MB-231 and Ramos cells (Homo sapiens, UniProt O14980) (O14980 whole entry): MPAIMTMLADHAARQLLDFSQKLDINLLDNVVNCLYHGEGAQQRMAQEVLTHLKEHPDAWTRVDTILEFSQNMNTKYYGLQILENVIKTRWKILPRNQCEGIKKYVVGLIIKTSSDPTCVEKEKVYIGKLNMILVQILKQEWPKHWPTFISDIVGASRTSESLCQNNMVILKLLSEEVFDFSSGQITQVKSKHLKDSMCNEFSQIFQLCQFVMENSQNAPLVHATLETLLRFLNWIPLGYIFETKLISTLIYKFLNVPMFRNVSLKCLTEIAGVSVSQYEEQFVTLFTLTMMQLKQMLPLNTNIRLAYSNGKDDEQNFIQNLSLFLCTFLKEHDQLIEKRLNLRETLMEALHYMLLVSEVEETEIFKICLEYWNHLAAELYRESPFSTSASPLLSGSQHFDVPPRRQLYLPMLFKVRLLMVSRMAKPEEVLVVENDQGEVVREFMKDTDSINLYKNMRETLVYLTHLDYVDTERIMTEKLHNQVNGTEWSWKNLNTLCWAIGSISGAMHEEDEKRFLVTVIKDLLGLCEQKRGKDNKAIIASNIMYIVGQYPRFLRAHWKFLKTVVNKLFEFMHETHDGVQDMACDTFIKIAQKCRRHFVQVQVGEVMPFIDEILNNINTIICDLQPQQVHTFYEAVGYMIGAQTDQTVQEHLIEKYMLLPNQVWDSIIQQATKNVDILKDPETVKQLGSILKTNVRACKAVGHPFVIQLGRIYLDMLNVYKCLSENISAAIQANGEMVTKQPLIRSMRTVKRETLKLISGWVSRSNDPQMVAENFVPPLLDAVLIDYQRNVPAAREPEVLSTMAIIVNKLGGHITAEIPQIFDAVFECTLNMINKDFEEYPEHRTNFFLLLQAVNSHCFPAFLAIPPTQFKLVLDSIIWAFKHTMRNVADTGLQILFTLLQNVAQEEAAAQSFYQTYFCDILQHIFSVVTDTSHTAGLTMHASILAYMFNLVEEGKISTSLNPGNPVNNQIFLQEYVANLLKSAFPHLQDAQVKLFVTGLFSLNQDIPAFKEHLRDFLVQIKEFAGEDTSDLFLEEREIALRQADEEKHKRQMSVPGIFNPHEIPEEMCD

Sequence of cysteines in MDA-MB-231 and Ramos cells (Homo sapiens, UniProt P27707) (P27707 whole entry): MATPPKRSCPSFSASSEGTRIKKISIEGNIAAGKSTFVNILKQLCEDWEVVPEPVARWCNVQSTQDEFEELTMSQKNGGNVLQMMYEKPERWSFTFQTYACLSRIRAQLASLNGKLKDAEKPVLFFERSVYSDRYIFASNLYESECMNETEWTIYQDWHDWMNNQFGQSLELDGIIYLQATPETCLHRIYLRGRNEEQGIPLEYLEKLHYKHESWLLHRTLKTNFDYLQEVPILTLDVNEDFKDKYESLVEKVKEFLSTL
Sequence of cysteines in MDA-MB-231 and Ramos cells (Homo sapiens, UniProt Q9UJW0) (Q9UJW0 whole entry): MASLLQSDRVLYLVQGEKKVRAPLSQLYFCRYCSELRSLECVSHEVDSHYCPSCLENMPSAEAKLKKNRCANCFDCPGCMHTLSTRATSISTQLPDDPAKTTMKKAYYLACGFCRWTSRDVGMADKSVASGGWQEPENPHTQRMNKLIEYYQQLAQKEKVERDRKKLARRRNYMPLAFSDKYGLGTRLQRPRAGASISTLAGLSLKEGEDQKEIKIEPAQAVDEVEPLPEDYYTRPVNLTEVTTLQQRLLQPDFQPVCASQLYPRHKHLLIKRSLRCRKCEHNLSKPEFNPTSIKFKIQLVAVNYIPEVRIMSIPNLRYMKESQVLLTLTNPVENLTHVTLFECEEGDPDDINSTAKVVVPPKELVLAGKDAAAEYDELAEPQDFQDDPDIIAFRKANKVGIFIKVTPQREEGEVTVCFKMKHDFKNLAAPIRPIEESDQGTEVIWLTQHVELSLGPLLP

In the case of `O=C(CCl)NC(=O)NC12CC3CC(CC(C3)C1)C2` [compound 12], in test [1], the “isoTOP-ABPP ratio, cysteine Q2NL82_C126” value is given as 20.0. Moreover, the “isoTOP-ABPP ratio P48643_C253” value in test [2] is 5.1. The “isoTOP-ABPP ratio Q9UJW0_C258” value in test [3] came to 20.0. Besides, in test [4], the “isoTOP-ABPP ratio, cysteine Q14980_C961” value was determined as 20.0. In addition, the “isoTOP-ABPP ratio P27707_C9” value in test [5] was 1.4. In test [6], the “isoTOP-ABPP ratio, cysteine Q96RU2_C171” value is 20.0. For the same molecule, the “isoTOP-ABPP ratio Q8NFH5_C255” value in test [7] was 12.4.

For `CC(C)CCOCCNC(=O)CCl` [compound 27], in test [1], the “isoTOP-ABPP ratio Q2NL82_C126” value worked out at 0.4. In addition, the “isoTOP-ABPP ratio Q15118_C71” value in [8] came out at 1.5. Moreover, the “isoTOP-ABPP ratio Q9UJW0_C258” value in test [3] is 0.8. Besides, the “isoTOP-ABPP ratio Q14980_C961” value in [4] amounted to 2.4. The “isoTOP-ABPP ratio Q14137_C404” value in test [9] worked out at 0.6. In [10], the “isoTOP-ABPP ratio Q15149_C4574” value is on record as 1.3. For the same molecule, in test [6], the “isoTOP-ABPP ratio, Q96RU2_C171” value came to 1.1.

With `C=CC(=O)Nc1cc(F)c(N2CCN(C(=O)OC(C)(C)C)CC2)c(F)c1` [compound 38], the “isoTOP-ABPP ratio Q2NL82_C126” value in test [1] worked out at 0.9. Moreover, in [2], the “isoTOP-ABPP ratio P48643_C253” value is 1.1. Moreover, the “isoTOP-ABPP ratio Q15118_C71” value in [8] stood at 1.3. For the same molecule, in [4], the “isoTOP-ABPP ratio Q14980_C961” value worked out at 2.6. Moreover, the “isoTOP-ABPP ratio P27707_C9” value in test [5] is recorded as 1.8. Also, the “isoTOP-ABPP ratio, Q96RU2_C171” value in test [6] is 0.8. For the same molecule, the “isoTOP-ABPP ratio O14980_C528” value in test [11] is 2.1. Besides, the “isoTOP-ABPP ratio Q8NFH5_C255” value in test [7] came to 1.1.
